Assay results as given in patent US20110201084A1, “ENZYMATIC HYDROLYSIS OF CELLULOSIC BIOMASS THROUGH ENHANCED REMOVAL OF OLIGOMERS” (THE REGENTS OF THE UNIVERSITY OF CALIFORNIA, priority 2008, published 2011).

Columns and labels:
cellulase [1] = assay: Effect of xylose oligomer chain length on Avicel glucan initial hydrolysis rate; format: biochemical
Description: FIG. 9 depicts the effect of xylose oligomer chain length on Avicel glucan initial hydrolysis rate at a cellulase loading of thirty FPU/g glucan and CBU to FPU activity ration of two.
Furthermore, these xylooligomers have been found in the liquor from pretreatment prior to enzymatic hydrolysis, with the amounts depending upon the type of pretreatment, substrate, and substrate loading. Furthermore, such xylooligomers can slow glucose and xylose release. […] In accordance with an aspect of the disclosure, 12.5 mg/ml (eighty mM xylose equivalent) of xylose, 6.6 mg/ml (forty-six mM xylose equivalent) and 16.6 mg/ml (one-hundred seventeen mM xylose equivalent) of xylobiose, and 6.6 mg/ml (forty-eight mM xylose equivalent) of xylotriose were added to two ml centrifuge tubes containing thirty mg of commercial grade cellulose in 1.5 ml of liquid at a cellulase loading of thirty FPU/g glucan, and initial hydrolysis rates were measured. Xylose alone at this concentration inhibited yields by about ten percent, but about half as much xylobiose, forty-six mM of xylose equivalent, reduced glucose release by eighteen percent. Furthermore, glucose release dropped by about thirty-two percent at a higher xylobiose loading of one-hundred seventeen mM of xylose equivalent. Adding almost half of the xylose concentration and about the same as the lower concentration of xylobiose, xylotriose (forty-eight mM xylose equivalent) reduced glucose release even more, by about twenty-four percent.

cellulase [2] = assay: Hydrolysis of Avicel cellulose with added birch wood xylan, xylose and β-xylosidase; format: biochemical; settings: xylose equivalent to 1% (w/v) xylan mixed with Avicel; 7.5 FPU/g glucan; 4 h rate
Method: Avicel+xylan−1% (w/v) each, Avicel+xylose−xylose equivalent to 1% (w/v) xylan. b-xylosidase loading was 28 mg/g glucan. Error bars represent the standard deviation.
Hydrolysis of one percent (w/w) commercial grade cellulose with an equal mass of birch wood xylan [approximately eighty-six percent xylan] was performed in triplicate at a cellulase plus β-glucosidase loading of 16.1 mg/glucan. Hydrolysis was also performed at a similar cellulase loading but supplemented with β-xylosidase at a loading of 14 mg/g glucan. To evaluate the effect of xylose alone on cellulose hydrolysis, cellulose containing an equivalent amount of xylose (1.053*amount of xylan) was enzymatically hydrolyzed in parallel. Controlled experiments for cellulose hydrolysis without xylan, cellulose with β-xylosidase only, and a substrate blank containing cellulose plus xylan were run in parallel. Samples were collected four, twenty-four, forty-eight, and seventy-two hours after initiation of hydrolysis and analyzed for sugars. Liquids produced by seventy-two hours of hydrolysis of samples containing xylan were post hydrolyzed to determine the amount of xylooligomers as described herein.
Referring now to FIG. 5, an aspect of the disclosure is the addition of β-xylosidase to effect hydrolysis of cellulose. […]
The concentration of xylose in the hydrolyzate was measured to be 5.5 g/l. […]

OC1OC[C@@H](O[C@@H]2OC[C@@H](O)[C@H](O)[C@H]2O)[C@H](O)[C@H]1O (some centres unmarked) [xylobiose]
reduction of glucose release (Avicel initial hydrolysis) (cellulase [1]; xylobiose 6.6 mg/ml (forty-six mM xylose equivalent), thirty FPU/g glucan): eighteen | reduction of glucose release (Avicel initial hydrolysis) (cellulase [1]; xylobiose 16.6 mg/ml (one-hundred seventeen mM xylose equivalent), thirty FPU/g glucan): about thirty-two

O=C[C@H](O)[C@@H](O)[C@H](O)CO [xylose]
reduction of glucose release (Avicel initial hydrolysis) (cellulase [1]; xylose 12.5 mg/ml (eighty mM xylose equivalent), cellulase thirty FPU/g glucan): about ten | inhibition of enzyme action (cellulase [2]): 12%

OC1OC[C@@H](O[C@@H]2OC[C@@H](O[C@@H]3OC[C@@H](O)[C@H](O)[C@H]3O)[C@H](O)[C@H]2O)[C@H](O)[C@H]1O (some centres unmarked) [xylotriose]
reduction of glucose release (Avicel initial hydrolysis) (cellulase [1]; xylotriose 6.6 mg/ml (forty-eight mM xylose equivalent), thirty FPU/g glucan): about twenty-four
